Measured values: PubChem BioAssay (NCI)
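How tested: cells in 96-well plates exposed to compound for 48 hours at five concentrations. TGI denotes the concentration required for complete inhibition of growth.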

Key:
Test in all cases: NCI-60 cell line screen, 48 h
[1] = test system: A498 renal
[2] = test system: ACHN renal
[3] = test system: BT-549 breast
[4] = test system: DU-145 prostate
[5] = test system: EKVX NSCLC
[6] = test system: HCC-2998 colon
[7] = test system: HCT-116 colon
[8] = test system: HCT-15 colon
[9] = test system: HL-60(TB) leukemia
[10] = test system: HOP-62 NSCLC
[11] = test system: HOP-92 NSCLC
[12] = test system: HT29 colon
[13] = test system: KM12 colon
[14] = test system: M14 melanoma
[15] = test system: MCF7 breast
[16] = test system: MDA-MB-435
[17] = test system: MDA-N
[18] = test system: MOLT-4 leukemia
[19] = test system: NCI-H226 lung
[20] = test system: OVCAR-3 ovarian
[21] = test system: OVCAR-5 ovarian
[22] = test system: OVCAR-8 ovarian
[23] = test system: PC-3 prostate
[24] = test system: RXF 393 renal
[25] = test system: SF-295 CNS
[26] = test system: SF-539 CNS
[27] = test system: SK-MEL-5 melanoma
[28] = test system: SN12C renal
[29] = test system: SNB-19 CNS
[30] = test system: SR leukemia
[31] = test system: SW-620 colon
[32] = test system: T-47D breast
[33] = test system: TK-10 renal
[34] = test system: U251 CNS
[35] = test system: UACC-62 melanoma
[36] = test system: UO-31 renal
[37] = test system: 786-0 renal
[38] = test system: A549 NSCLC
[39] = test system: CAKI-1 renal
[40] = test system: CCRF-CEM leukemia
[41] = test system: COLO 205 colon
[42] = test system: HS 578T breast
[43] = test system: IGROV1 ovarian
[44] = test system: K-562 leukemia
[45] = test system: LOX IMVI melanoma
[46] = test system: MALME-3M melanoma
[47] = test system: MDA-MB-231 breast
[48] = test system: NCI-H23 lung
[49] = test system: NCI-H460 lung
[50] = test system: NCI-H522 lung
[51] = test system: NCI/ADR-RES ovarian
[52] = test system: OVCAR-4 ovarian
[53] = test system: RPMI-8226 leukemia
[54] = test system: SF-268 CNS
[55] = test system: SK-MEL-2 melanoma
[56] = test system: SK-MEL-28 melanoma
[57] = test system: SK-OV-3 ovarian
[58] = test system: SNB-75 CNS
[59] = test system: UACC-257 melanoma

CCN(CC)CCCC(C)Nc1cc(/C=C/c2ccc(Cl)cc2)nc2cc(N(C)C)ccc12 (stereo not given)
TGI [1]: 3.12 µM
TGI [2]: 4.42 µM
TGI [3]: 3.01 µM
TGI [4]: 3.21 µM
TGI [5]: 3.34 µM
TGI [6]: 3.57 µM
TGI [7]: 2.49 µM
TGI [8]: 3.17 µM
TGI [9]: 3.54 µM
TGI [10]: 3.4 µM
TGI [11]: 3.16 µM
TGI [12]: 2.65 µM
TGI [13]: 3.26 µM
TGI [14]: 3.09 µM
TGI [15]: 3.39 µM
TGI [16]: 3.06 µM
TGI [17]: 3.01 µM
TGI [18]: 3.01 µM
TGI [19]: 11.6 µM
TGI [20]: 3.49 µM
TGI [21]: 3.37 µM
TGI [22]: 3.41 µM
TGI [23]: 2.78 µM
TGI [24]: 3.06 µM
TGI [25]: 3.33 µM
TGI [26]: 4.65 µM
TGI [27]: 4.34 µM
TGI [28]: 3.25 µM
TGI [29]: 3.3 µM
TGI [30]: 2.85 µM
TGI [31]: 2.69 µM
TGI [32]: 3.55 µM
TGI [33]: 3.54 µM
TGI [34]: 3.19 µM
TGI [35]: 6.54 µM
TGI [36]: 3.55 µM

CC1CC(C)C2=NOS3=C2C1=NO3 (stereo not given)
TGI [37]: > 100 µM
TGI [1]: 94.8 µM
TGI [38]: > 100 µM
TGI [2]: > 100 µM
TGI [39]: > 100 µM
TGI [40]: > 100 µM
TGI [41]: > 100 µM
TGI [4]: > 100 µM
TGI [5]: > 100 µM
TGI [6]: > 100 µM
TGI [7]: > 100 µM
TGI [8]: > 100 µM
TGI [9]: > 100 µM
TGI [10]: > 100 µM
TGI [11]: > 100 µM
TGI [42]: > 100 µM
TGI [12]: > 100 µM
TGI [43]: > 100 µM
TGI [44]: > 100 µM
TGI [13]: > 100 µM
TGI [45]: > 100 µM
TGI [14]: > 100 µM
TGI [46]: > 100 µM
TGI [15]: > 100 µM
TGI [47]: > 100 µM
TGI [16]: > 100 µM
TGI [17]: > 100 µM
TGI [18]: > 100 µM
TGI [19]: > 100 µM
TGI [48]: > 100 µM
TGI [49]: > 100 µM
TGI [50]: > 100 µM
TGI [51]: > 100 µM
TGI [20]: > 100 µM
TGI [52]: > 100 µM
TGI [21]: > 100 µM
TGI [22]: > 100 µM
TGI [23]: > 100 µM
TGI [53]: > 100 µM
TGI [24]: > 100 µM
TGI [54]: > 100 µM
TGI [25]: > 100 µM
TGI [26]: > 100 µM
TGI [55]: > 100 µM
TGI [56]: > 100 µM
TGI [27]: > 100 µM
TGI [57]: > 100 µM
TGI [28]: > 100 µM
TGI [29]: > 100 µM
TGI [58]: > 100 µM
TGI [30]: > 100 µM
TGI [31]: > 100 µM
TGI [32]: > 100 µM
TGI [33]: > 100 µM
TGI [34]: > 100 µM
TGI [59]: > 100 µM
TGI [35]: > 100 µM
TGI [36]: > 100 µM

Cn1c(=O)oc2cc(Br)ccc21
TGI [37]: > 100 µM
TGI [1]: > 100 µM
TGI [38]: > 100 µM
TGI [2]: > 100 µM
TGI [39]: > 100 µM
TGI [40]: > 100 µM
TGI [41]: > 100 µM
TGI [4]: > 100 µM
TGI [5]: > 100 µM
TGI [6]: > 100 µM
TGI [7]: > 100 µM
TGI [8]: > 100 µM
TGI [9]: > 100 µM
TGI [10]: > 100 µM
TGI [42]: > 100 µM
TGI [12]: > 100 µM
TGI [43]: > 100 µM
TGI [44]: > 100 µM
TGI [13]: > 100 µM
TGI [45]: > 100 µM
TGI [14]: > 100 µM
TGI [46]: > 100 µM
TGI [15]: > 100 µM
TGI [47]: > 100 µM
TGI [16]: > 100 µM
TGI [17]: > 100 µM
TGI [18]: > 100 µM
TGI [19]: > 100 µM
TGI [48]: > 100 µM
TGI [49]: > 100 µM
TGI [50]: > 100 µM
TGI [51]: > 100 µM
TGI [20]: > 100 µM
TGI [52]: > 100 µM
TGI [21]: > 100 µM
TGI [22]: > 100 µM
TGI [23]: > 100 µM
TGI [53]: > 100 µM
TGI [24]: > 100 µM
TGI [54]: > 100 µM
TGI [25]: > 100 µM
TGI [26]: > 100 µM
TGI [55]: > 100 µM
TGI [56]: > 100 µM
TGI [27]: > 100 µM
TGI [57]: > 100 µM
TGI [28]: > 100 µM
TGI [29]: > 100 µM
TGI [58]: > 100 µM
TGI [30]: > 100 µM
TGI [31]: > 100 µM
TGI [32]: > 100 µM
TGI [33]: > 100 µM
TGI [59]: > 100 µM
TGI [35]: > 100 µM
TGI [36]: > 100 µM

CCOC(=O)NC(Nc1ccc(Cl)cn1)(C(F)(F)F)C(F)(F)F
TGI [1]: > 100 µM
TGI [2]: > 100 µM
TGI [3]: > 100 µM
TGI [40]: > 100 µM
TGI [4]: > 100 µM
TGI [5]: > 100 µM
TGI [6]: > 100 µM
TGI [7]: > 100 µM
TGI [8]: > 100 µM
TGI [9]: > 100 µM
TGI [10]: > 100 µM
TGI [42]: > 100 µM
TGI [12]: > 100 µM
TGI [44]: > 100 µM
TGI [13]: > 100 µM
TGI [45]: > 100 µM
TGI [14]: > 100 µM
TGI [46]: > 100 µM
TGI [15]: > 100 µM
TGI [47]: > 100 µM
TGI [16]: > 100 µM
TGI [17]: > 100 µM
TGI [18]: > 100 µM
TGI [19]: > 100 µM
TGI [48]: > 100 µM
TGI [49]: > 100 µM
TGI [50]: > 100 µM
TGI [20]: > 100 µM
TGI [21]: > 100 µM
TGI [53]: > 100 µM
TGI [24]: > 100 µM
TGI [54]: > 100 µM
TGI [26]: > 100 µM
TGI [55]: > 100 µM
TGI [56]: > 100 µM
TGI [57]: > 100 µM
TGI [29]: > 100 µM
TGI [58]: > 100 µM
TGI [30]: > 100 µM
TGI [32]: > 100 µM
TGI [33]: > 100 µM
TGI [34]: > 100 µM
TGI [59]: > 100 µM
TGI [35]: > 100 µM
TGI [36]: > 100 µM
